From ChEMBL document CHEMBL3431459, “Roche carnitine palmitoyltransferase modulator screening data (supplementary data associated with the publication CHEMBL2216752)”
Converted amounts (≈) assume the structure as drawn.

How the values were obtained:
[1] = target: T1, Carnitine O-palmitoyltransferase 1, muscle isoform (Homo sapiens, UniProt Q92523); test: SUPPLEMENTARY: Inhibition of Carnitine palmitoyltransferase 1, muscle isoform; set-up: species or system Muscle tissue
T1 sequence (Q92523 whole entry): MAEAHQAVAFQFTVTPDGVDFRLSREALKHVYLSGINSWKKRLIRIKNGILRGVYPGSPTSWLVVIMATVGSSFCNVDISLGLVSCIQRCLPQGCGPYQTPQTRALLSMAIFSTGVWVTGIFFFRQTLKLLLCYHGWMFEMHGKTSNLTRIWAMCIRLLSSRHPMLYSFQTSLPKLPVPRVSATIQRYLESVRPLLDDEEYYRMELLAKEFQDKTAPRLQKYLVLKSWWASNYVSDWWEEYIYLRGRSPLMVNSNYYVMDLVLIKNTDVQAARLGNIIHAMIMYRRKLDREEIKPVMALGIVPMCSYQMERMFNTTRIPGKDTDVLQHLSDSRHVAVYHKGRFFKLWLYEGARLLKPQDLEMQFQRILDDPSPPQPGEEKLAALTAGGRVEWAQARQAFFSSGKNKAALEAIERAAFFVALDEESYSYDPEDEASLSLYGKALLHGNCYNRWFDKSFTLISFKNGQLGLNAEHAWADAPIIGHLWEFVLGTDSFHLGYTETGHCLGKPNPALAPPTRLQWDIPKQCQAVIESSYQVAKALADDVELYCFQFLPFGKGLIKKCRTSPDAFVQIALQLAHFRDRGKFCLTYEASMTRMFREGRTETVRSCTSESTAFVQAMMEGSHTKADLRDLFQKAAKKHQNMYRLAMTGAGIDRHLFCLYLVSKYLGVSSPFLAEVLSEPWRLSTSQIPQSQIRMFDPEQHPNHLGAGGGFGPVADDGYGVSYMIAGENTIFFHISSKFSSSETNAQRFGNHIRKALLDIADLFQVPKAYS

[2] = SUPPLEMENTARY: PAMPA permeability assay; format: physicochemical; settings: read-out: Permeability
[3] = SUPPLEMENTARY: Lipophilicity (log D) Determination by high-throughput shake-flask; format: physicochemical; settings: octanol/water
[4] = SUPPLEMENTARY: Lyophilisation Solubility Assay (LYSA); format: physicochemical; settings: read-out: Kinetic_solubility
[5] = target: T2, Carnitine O-palmitoyltransferase 2, mitochondrial (Homo sapiens, UniProt P23786); test: (§1) SUPPLEMENTARY: Inhibition of Carnitine palmitoyltransferase 2
T2 sequence (P23786 whole entry): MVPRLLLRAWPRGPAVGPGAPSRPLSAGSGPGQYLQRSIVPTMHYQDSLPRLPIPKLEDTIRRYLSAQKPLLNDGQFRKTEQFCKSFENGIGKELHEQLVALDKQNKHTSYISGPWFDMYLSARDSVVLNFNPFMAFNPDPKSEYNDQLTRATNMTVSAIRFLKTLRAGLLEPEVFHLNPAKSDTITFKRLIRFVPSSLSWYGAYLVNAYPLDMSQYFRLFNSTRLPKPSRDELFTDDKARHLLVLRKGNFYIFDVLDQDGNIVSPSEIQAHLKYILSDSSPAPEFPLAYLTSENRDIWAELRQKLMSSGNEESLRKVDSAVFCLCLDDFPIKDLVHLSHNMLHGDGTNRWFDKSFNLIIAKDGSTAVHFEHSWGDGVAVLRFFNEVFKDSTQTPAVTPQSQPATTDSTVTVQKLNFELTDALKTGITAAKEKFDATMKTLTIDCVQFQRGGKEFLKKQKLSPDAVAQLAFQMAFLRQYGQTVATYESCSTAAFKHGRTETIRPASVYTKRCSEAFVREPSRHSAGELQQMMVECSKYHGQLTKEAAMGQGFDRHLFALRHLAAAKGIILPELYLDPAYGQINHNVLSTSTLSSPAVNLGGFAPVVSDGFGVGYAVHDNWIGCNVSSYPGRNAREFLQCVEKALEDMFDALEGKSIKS

[6] = target: T3, Carnitine O-palmitoyltransferase 2, mitochondrial (Rattus norvegicus, UniProt P18886); test: as §1
T3 sequence (P18886 whole entry): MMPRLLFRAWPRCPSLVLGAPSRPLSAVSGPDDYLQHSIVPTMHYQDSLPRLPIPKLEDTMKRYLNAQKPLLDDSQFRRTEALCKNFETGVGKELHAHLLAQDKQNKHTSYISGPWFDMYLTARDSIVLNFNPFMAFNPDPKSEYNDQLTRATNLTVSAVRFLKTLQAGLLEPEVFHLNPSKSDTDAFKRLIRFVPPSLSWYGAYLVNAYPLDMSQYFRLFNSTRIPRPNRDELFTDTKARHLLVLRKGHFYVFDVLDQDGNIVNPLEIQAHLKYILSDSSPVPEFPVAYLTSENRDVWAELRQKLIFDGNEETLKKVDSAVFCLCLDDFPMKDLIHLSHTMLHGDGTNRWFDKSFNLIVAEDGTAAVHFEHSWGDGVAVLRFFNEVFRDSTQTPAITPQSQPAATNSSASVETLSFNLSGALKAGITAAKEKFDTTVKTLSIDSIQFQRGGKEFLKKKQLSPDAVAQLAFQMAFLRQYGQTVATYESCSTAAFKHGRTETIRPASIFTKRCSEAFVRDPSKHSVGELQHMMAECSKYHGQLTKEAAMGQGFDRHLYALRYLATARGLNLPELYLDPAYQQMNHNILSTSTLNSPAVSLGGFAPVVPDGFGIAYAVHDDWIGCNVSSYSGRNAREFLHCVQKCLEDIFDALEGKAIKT

[7] = target: T4, Carnitine O-palmitoyltransferase 1, liver isoform (Homo sapiens, UniProt P50416); test: (§2) SUPPLEMENTARY: Inhibition of Carnitine palmitoyltransferase 1, liver isoform
T4 sequence (P50416 whole entry): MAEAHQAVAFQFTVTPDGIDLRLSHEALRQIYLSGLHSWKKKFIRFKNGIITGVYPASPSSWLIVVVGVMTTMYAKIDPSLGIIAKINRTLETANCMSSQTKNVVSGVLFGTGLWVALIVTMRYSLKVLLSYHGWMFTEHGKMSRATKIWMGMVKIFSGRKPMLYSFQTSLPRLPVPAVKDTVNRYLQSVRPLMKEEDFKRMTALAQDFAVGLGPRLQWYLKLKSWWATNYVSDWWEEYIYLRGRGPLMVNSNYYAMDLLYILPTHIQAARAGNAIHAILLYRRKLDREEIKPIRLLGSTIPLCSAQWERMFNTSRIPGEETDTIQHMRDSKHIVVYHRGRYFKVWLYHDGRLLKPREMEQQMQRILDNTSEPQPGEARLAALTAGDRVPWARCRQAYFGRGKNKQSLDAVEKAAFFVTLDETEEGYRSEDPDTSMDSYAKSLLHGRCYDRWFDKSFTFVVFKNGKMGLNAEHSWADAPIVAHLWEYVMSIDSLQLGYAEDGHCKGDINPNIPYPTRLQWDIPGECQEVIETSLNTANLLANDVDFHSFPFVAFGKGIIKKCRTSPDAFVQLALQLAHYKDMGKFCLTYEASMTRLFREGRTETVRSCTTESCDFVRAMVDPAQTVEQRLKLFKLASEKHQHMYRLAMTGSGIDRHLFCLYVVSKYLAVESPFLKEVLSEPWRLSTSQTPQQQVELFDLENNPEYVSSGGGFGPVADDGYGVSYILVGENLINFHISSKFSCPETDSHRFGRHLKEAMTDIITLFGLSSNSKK

[8] = target: T5, Carnitine O-palmitoyltransferase 1, liver isoform (Rattus norvegicus, UniProt P32198); test: as §2
T5 sequence (P32198 whole entry): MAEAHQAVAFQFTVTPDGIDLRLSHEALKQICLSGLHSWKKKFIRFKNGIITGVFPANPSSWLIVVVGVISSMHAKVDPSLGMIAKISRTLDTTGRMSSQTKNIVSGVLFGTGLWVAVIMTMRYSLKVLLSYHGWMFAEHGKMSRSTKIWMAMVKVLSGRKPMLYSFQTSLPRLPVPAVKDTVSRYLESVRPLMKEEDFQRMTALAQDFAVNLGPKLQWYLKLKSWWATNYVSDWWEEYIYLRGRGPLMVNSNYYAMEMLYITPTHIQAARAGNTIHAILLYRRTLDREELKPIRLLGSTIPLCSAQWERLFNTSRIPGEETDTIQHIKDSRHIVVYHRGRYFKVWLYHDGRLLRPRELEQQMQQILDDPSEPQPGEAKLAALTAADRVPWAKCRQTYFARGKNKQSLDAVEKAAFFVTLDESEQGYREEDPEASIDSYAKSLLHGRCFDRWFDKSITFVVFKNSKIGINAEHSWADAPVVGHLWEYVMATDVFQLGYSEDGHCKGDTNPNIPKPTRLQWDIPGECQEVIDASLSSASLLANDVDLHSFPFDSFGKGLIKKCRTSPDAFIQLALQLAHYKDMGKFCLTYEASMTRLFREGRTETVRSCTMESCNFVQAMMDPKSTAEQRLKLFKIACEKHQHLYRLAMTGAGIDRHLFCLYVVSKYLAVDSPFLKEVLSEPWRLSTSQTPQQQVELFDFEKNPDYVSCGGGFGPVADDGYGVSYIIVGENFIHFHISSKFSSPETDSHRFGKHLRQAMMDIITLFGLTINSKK

Row | Structure (SMILES) | IC50 [1] | Papp [2] | logD [3] | solubility kinetic [4] | IC50 [5] | IC50 [6] | IC50 [7] | IC50 [8]
1 | COC[C@@H]1CCN(NC(=O)c2cccc(-c3n[nH]c([C@H]4CCCCN4C(=O)COc4ccccc4)n3)c2)C1 | > 100000 nM | 3.31 ×10⁻⁶ cm/s | 2.45 | 229 µg/mL (≈ 442 µM) | 74300 nM | 73600 nM | 159 nM | 1300 nM
2 | COc1ccc(Cl)cc1CN1C(=O)OC(C)(C)c2ccc(C(=O)Nc3ccc(C(=O)O)cc3)cc21 | 6240 nM | 1.81 ×10⁻⁶ cm/s | 2.38 | 3 µg/mL (≈ 6.06 µM) | 10800 nM | 28100 nM | 88.5 nM | 96.8 nM
3 | NC(=O)c1n[nH]c2cc(-c3noc([C@H]4CCCCN4C(=O)COc4ccccc4)n3)ccc12 | > 100000 nM | 2.35 ×10⁻⁶ cm/s | 3.04 | 5 µg/mL (≈ 11.2 µM) | > 100000 nM | > 100000 nM | 63.5 nM | 1070 nM
4 | COc1ccc(Cl)cc1S(=O)(=O)N1CCOc2ccc(C(=O)Nc3ncc(CC(=O)O)s3)cc21 | 1430 nM | 2.18 ×10⁻⁶ cm/s | 0.05 | 31 µg/mL (≈ 59.2 µM) | > 100000 nM | > 100000 nM | 41.6 nM | 38.6 nM
5 | Cc1ncc(-c2noc([C@H]3CCCCN3C(=O)COc3ccccc3)n2)c(=O)[nH]1 | > 100000 nM | 3.03 ×10⁻⁶ cm/s | 1.14 | > 505 µg/mL | > 100000 nM | > 100000 nM | 140 nM | 1560 nM
6 | COc1ccc(Cl)cc1S(=O)(=O)N1COCc2ccc(C(=O)Nc3ccc(C(=O)O)cc3)cc21 | 38600 nM | 2.16 ×10⁻⁶ cm/s | 0.32 | 60 µg/mL (≈ 119 µM) | 3450 nM | 16600 nM | 59.7 nM | 105 nM
7 | COc1ccc(Cl)cc1S(=O)(=O)N(C)c1cc(C(=O)Nc2nc(CC(=O)O)cs2)cc2c1OCO2 | 1160 nM | 2.43 ×10⁻⁶ cm/s | -0.12 | 399 µg/mL (≈ 739 µM) | 28400 nM | 67500 nM | 51.5 nM | 62.5 nM
8 | O=C(COc1ccccc1)N1CCCC[C@@H]1c1noc(-c2ccc3cnccc3n2)n1 | > 100000 nM | 4.52 ×10⁻⁶ cm/s | 2.52 | 82 µg/mL (≈ 197 µM) | 17400 nM | > 100000 nM | 188 nM | 305 nM
9 | COCCN(c1cc(C(=O)Nc2nc(CC(=O)O)cs2)cc2c1OCO2)S(=O)(=O)c1cc(Cl)ccc1OC | 3560 nM | 1.16 ×10⁻⁶ cm/s | 2.57 | 238 µg/mL (≈ 408 µM) | 74400 nM | > 100000 nM | 252 nM | 154 nM

Now from value to molecule:

Row | IC50 [1] | Papp [2] | logD [3] | solubility kinetic [4] | IC50 [5] | IC50 [6] | IC50 [7] | IC50 [8] | Structure (SMILES)
10 | > 100000 nM | 2.7 ×10⁻⁶ cm/s | 2.97 | 5 µg/mL (≈ 11.5 µM) | 701 nM | 1120 nM | 259 nM | 263 nM | O=C([C@H]1CCCCN1C(=O)COc1ccccc1)N1Cc2ccc(OCC3CC3)cc2C1
11 | 5650 nM | 0.03 ×10⁻⁶ cm/s | -0.79 | 558 µg/mL (≈ 1030 µM) | > 100000 nM | > 100000 nM | 218 nM | 144 nM | COc1ccc(Cl)cc1S(=O)(=O)N1CCOc2c(Cl)cc(C(=O)Nc3ccn(CC(=O)O)n3)cc21
12 | > 100000 nM | 5.55 ×10⁻⁶ cm/s | 2.79 | 10 µg/mL (≈ 22.4 µM) | 12100 nM | 18300 nM | 96.4 nM | 663 nM | NC(=O)c1cn2ccc(-c3noc([C@H]4CCCCN4C(=O)COc4ccccc4)n3)cc2n1
13 | > 100000 nM | 3.82 ×10⁻⁶ cm/s | 2.62 | 14 µg/mL (≈ 30.3 µM) | 50600 nM | > 100000 nM | 50.6 nM | 103 nM | O=C1CN(c2cccc(-c3noc([C@H]4CCCCN4C(=O)COc4ccccc4)n3)c2)C(=O)N1
14 | 13200 nM | 2.43 ×10⁻⁶ cm/s | 2.51 | 44 µg/mL (≈ 105 µM) | 69400 nM | 15000 nM | 35.4 nM | 475 nM | O=C(COc1ccccc1)N1CCCC[C@@H]1c1nc(-c2ccc3[nH]c(=O)[nH]c3c2)no1
